# Test results published in patent US20130136836A1, “Taste-Masking Compositions, Sweetener Compositions and Consumable Product Compositions Containing the Same” (Nutrinova Nutrition Specialties & Food Ingredients GmbH, priority 2011, published 2013).
# Legend:
# [1] = tested on: panel of trained sensory evaluators; assay: Taste and spit assay, descriptive taste impression versus base samples, panel of 4 trained sensory evaluators (Examples 3 to 13); format: in vivo, human; settings: for further effect added to the composition of the invention: benzaldehyde 0.02 wppm, below its threshold
# Experimental: All tests were conducted under controlled and standardized conditions.
# (§1) The samples were prepared by a trained laboratory assistant.
# 35 ml of the samples were served at room temperature in clear plastic cups.
# The following samples comprising a composition of the invention were tested for their ability to improve the taste of artificial sweeteners.
# All samples were tested in duplicate and evaluated at least 3 different concentrations in comparison to 3 base samples (samples 1 to 3).
# The panelists were asked to evaluate and to describe the taste impression of the samples 4 to 13 containing a sweetener composition comprising acesulfame potassium, sucralose and a composition of the invention, e.g. bitter aftertaste, creaminess, fullness and character of the sweeteners in each case in comparison to the base samples 1 to 3.
# The results of the taste and spit assay are based in each case on a qualitative evaluation of the differences between the samples.
# [2] = tested on: panel of trained sensory evaluators; assay: Taste and spit assay with regard to sweetness in the aftertaste, panel of 11 trained sensory evaluators (Example 2); format: in vivo, human; settings: 11 panelists; 35 ml at 6.0-8.0 °C; after 2 minutes; qualitative comparison of three samples; FIG. 2
# Experimental: Again the panelists are given samples.
# Air was constantly exchanged.
# as §1
# The panel used the sweetness scale anchored by three concentrations of sucrose:
# Sweetness was assessed with the 1st sip (max. 30 ml, min of 15 ml) and scored in the aftertaste (after 2 minutes).
# All samples were tested in duplicate.
molecule,measurement,setting,value
delta-undecalactone,taste impression of the lactone in the composition,"[1]; delta-undecalactone 0.0388 wppm in Sample 14, replacing massoia lactone, 4 panelists","not being too volatile and as adding a creamy taste, and as improving the total composition"
OC[C@H]1O[C@@](CO)(O[C@H]2O[C@H](CO)[C@@H](O)[C@H](O)[C@H]2O)[C@@H](O)[C@@H]1O [saccharose],sweetness in the aftertaste,[2],less sweet in the aftertaste than acesulfame potassium and sucralose
"O=Cc1ccccc1 [Benzaldehyde, benzaldehyde]",further effect added to the composition of the invention,"[1]; in sample 12 (with naringin, syringaldehyde, massoia lactone, whiskey lactone)",did not add any further effect
same,further effect added to the composition of the invention,"[1]; in sample 13 (with naringin, 4-methoxy salicylaldehyde, lactones, amino acids; sucralose 75 wppm)",did not add any further effect
